We go through three compounds from US6958346B2, “4-heteroaryl-tetrahydroquinolines and their use as inhibitors of the cholesterin-ester transfer protein” (Bayer Aktiengesellschaft, priority 1997, dated 2005).

Data set [1] concerns the target T1, cholesterol ester transfer protein (CETP) (Homo sapiens, UniProt P11597).
T1 construct: CETP is obtained in partially purified form from human plasma by differential centrifugation and column chromatography; from tissue; host or cells: human plasma
T1 sequence (P11597 18-493): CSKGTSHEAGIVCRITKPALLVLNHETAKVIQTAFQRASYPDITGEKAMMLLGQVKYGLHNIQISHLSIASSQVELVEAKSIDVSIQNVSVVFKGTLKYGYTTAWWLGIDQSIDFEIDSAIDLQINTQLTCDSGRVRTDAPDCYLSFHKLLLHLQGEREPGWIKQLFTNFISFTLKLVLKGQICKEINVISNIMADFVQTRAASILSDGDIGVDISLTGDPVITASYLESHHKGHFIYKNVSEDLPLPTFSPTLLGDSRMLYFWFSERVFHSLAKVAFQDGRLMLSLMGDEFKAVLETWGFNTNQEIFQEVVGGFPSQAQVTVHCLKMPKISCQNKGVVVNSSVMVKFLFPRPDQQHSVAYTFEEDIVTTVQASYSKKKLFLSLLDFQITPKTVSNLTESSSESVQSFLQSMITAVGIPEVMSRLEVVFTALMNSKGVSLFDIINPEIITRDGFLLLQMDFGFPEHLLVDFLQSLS
The data set can be described thus: CETP inhibition test (transfer of 3H-cholesterol ester from human HDL to biotinylated LDL, SPA). The settings on record: CETP partially purified from human plasma; 37° C., 18 h; concentration at which transfer is reduced by half. In kind it is biochemical. How it is done:
CETP is obtained in partially purified form from human plasma by differential centrifugation and column chromatography and used for the test. For this purpose, human plasma is adjusted to a density of 1.21 g per ml using NaBr and centrifuged at 50,000 rpm at 4° C. for 18 h. The bottom fraction (d>1.21 g/ml) is applied to a Sephadex®Phenyl-Sepharose 4B (Pharmacia) column, washed with 0.15 m NaCl/0.001 m TrisHCl pH 7.4 and subsequently eluted using dist. water. The CETP-active fractions are pooled, dialysed against 50 mM Na-acetate pH 4.5 and applied to a CM-Sepharose® (Pharmacia) column. Elution is subsequently carried out using a linear gradient (0-1 M NaCl). The pooled CETP fractions are dialysed against 10 mM TrisHCl pH 7.4 and subsequently purified further by chromatography over a Mono Q® column (Pharmacia).
50 ml of fresh human EDTA plasma are adjusted to a density of 1.12 using NaBr and centrifuged at 4° C. in a Ty 65 rotor at 50,000 rpm for 18 h. The upper phase is used to obtain cold LDL. […]
To test the CETP activity, the transfer of ^3H-cholesterol ester from human HD-lipoproteins to biotinylated LD-lipoproteins is measured.
The reaction is terminated by addition of Streptavidin-SPA® beads (Amersham) and the transferred radioactivity is directly determined in a liquid scintillation counter. […]

`CC1(C)CC(=O)c2c(nc(C3CCCC3)c(C(=O)c3ccc(C(F)(F)F)cc3)c2-c2ccsc2)C1` [Example 1, 2-Cyclopentyl-7,7-dimethyl-4-(3-thienyl)-3-(4-trifluoromethylbenzoyl)-5,6,7,8-tetrahydro-quinolin-5-one]: half-maximal inhibition in data set [1] (IC50) was put at 10 nM.

On to `CC1(C)CC(=O)c2c(nc(C3CCCC3)c(C(=O)c3ccc(C(F)(F)F)cc3)c2-c2ccncc2)C1` [Example 2], for which the melting point (usually the temperature, or range, at which the solid turns liquid) is 221 to 224 °C.

`CC1(C)CC(=O)c2c(nc(C3CCCC3)c(C(=O)c3ccc(C(F)(F)F)cc3)c2C2CCCCC2)C1` [Example 3] returned a melting point of 185 to 186 °C.
